Measured values: patent US20090304692A1, “TRIAZINE COMPOUNDS AS PI3 KINASE AND MTOR INHIBITORS” (Wyeth, priority 2008, published 2009)
Like-named read-outs stand apart in the source and are kept apart here.

Tests used:
Human mTOR (FLAG-TOR) = Human mTOR (FLAG-TOR) (Homo sapiens, UniProt P42345); assay: mTOR kinase assay (DELFIA format, purified enzyme); assay type: biochemical; settings: read-out: IC50 mTOR
[1] = test system: human prostate LNCap tumor cell line; assay: In vitro cell culture growth assay (MTS), LNCap; settings: Homo sapiens, LNCaP, 72 h, read-out: IC50 LNCap
PI3K-α = PI3K-α (Homo sapiens, UniProt P42336); assay: PI3K-alpha fluorescence polarization assay
PI3K-γ = PI3K-γ (Homo sapiens, UniProt P48736); assay: PI3K-gamma fluorescence polarization assay
Chain of PI3K-γ (P48736 whole entry, species assumed): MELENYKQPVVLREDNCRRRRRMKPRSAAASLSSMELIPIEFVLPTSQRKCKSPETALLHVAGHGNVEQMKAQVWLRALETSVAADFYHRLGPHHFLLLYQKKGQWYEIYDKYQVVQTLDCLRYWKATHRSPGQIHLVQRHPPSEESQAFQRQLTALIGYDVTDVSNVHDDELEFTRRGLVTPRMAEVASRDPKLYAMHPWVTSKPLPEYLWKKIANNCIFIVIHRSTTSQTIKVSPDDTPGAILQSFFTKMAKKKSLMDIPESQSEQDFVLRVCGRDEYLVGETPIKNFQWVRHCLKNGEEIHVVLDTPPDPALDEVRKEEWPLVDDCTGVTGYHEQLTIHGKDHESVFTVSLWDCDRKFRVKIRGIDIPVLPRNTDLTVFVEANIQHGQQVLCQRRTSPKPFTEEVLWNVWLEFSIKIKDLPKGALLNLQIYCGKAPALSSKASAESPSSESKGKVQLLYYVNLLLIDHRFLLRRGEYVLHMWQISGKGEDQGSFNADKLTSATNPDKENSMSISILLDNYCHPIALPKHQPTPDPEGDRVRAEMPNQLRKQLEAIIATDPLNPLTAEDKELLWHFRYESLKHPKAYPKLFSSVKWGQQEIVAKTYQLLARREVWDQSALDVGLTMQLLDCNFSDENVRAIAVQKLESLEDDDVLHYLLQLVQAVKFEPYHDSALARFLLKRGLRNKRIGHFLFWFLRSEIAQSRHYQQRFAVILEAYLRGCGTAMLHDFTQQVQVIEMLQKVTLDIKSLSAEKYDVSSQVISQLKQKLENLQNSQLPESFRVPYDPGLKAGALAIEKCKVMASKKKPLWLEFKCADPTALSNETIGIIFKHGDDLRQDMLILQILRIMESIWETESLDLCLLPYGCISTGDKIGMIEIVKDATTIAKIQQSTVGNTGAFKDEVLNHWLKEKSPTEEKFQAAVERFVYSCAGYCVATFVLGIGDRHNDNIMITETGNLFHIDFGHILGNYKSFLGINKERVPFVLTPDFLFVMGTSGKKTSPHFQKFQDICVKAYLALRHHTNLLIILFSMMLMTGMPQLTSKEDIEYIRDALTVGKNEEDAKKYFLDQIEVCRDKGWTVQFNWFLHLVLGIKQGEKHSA

Chain of Human mTOR (FLAG-TOR) (P42345 1360-2549 limits assumed): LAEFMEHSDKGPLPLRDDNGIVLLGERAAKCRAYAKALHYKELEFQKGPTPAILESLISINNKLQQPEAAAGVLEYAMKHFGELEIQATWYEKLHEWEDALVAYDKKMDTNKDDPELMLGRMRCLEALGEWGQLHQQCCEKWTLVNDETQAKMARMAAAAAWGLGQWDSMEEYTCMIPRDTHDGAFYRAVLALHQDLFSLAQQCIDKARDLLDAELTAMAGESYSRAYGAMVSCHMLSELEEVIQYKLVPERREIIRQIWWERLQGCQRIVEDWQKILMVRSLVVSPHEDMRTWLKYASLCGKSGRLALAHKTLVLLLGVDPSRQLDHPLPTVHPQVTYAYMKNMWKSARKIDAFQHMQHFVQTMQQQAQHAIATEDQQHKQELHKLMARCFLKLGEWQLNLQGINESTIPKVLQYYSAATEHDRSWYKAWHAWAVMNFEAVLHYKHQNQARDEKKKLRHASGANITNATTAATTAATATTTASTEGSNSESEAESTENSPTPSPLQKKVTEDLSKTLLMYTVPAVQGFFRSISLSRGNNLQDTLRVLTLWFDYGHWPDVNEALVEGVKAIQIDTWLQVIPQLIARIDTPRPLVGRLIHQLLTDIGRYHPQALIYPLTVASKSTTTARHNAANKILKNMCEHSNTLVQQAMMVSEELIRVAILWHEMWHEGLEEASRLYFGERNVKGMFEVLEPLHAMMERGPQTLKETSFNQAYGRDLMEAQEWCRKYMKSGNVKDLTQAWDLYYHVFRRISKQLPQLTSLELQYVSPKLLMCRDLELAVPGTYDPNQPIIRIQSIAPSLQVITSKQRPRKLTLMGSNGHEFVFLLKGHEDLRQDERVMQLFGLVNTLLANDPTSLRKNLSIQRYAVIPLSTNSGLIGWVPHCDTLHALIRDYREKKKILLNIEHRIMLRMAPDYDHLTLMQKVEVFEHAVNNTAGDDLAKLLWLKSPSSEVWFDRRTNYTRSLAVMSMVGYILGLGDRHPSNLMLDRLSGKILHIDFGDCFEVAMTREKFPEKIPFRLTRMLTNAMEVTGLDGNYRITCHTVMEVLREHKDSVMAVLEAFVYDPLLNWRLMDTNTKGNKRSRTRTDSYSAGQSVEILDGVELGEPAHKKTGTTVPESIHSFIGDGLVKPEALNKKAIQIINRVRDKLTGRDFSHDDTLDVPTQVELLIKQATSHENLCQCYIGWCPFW
Chain of PI3K-α (P42336 whole entry, species assumed): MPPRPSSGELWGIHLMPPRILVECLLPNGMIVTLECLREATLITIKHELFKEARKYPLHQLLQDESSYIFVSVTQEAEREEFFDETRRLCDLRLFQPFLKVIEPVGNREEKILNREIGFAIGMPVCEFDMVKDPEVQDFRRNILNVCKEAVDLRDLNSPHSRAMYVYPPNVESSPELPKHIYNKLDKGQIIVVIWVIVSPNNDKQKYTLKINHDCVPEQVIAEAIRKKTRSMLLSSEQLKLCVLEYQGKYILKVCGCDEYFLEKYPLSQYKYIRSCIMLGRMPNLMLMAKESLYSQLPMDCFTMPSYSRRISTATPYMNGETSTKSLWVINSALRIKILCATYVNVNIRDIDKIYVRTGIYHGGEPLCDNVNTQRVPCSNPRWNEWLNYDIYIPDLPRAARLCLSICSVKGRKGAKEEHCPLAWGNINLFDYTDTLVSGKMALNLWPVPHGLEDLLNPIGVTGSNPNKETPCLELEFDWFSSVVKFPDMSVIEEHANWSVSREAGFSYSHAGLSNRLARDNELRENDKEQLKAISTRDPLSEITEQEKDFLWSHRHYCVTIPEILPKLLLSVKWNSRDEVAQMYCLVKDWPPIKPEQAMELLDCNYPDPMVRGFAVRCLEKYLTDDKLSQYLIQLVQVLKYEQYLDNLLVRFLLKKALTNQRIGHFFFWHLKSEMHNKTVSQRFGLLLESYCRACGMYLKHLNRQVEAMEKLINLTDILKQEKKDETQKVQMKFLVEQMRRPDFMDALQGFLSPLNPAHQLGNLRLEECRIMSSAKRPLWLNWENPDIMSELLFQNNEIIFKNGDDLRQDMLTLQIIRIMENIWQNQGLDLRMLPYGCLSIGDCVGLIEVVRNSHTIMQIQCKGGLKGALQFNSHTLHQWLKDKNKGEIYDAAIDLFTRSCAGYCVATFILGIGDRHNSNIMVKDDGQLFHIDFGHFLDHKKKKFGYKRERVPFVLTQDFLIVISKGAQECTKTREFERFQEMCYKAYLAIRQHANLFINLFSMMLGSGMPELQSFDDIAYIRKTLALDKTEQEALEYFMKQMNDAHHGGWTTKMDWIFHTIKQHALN
Chain of PI3K-α (P27986 whole entry partner, species assumed): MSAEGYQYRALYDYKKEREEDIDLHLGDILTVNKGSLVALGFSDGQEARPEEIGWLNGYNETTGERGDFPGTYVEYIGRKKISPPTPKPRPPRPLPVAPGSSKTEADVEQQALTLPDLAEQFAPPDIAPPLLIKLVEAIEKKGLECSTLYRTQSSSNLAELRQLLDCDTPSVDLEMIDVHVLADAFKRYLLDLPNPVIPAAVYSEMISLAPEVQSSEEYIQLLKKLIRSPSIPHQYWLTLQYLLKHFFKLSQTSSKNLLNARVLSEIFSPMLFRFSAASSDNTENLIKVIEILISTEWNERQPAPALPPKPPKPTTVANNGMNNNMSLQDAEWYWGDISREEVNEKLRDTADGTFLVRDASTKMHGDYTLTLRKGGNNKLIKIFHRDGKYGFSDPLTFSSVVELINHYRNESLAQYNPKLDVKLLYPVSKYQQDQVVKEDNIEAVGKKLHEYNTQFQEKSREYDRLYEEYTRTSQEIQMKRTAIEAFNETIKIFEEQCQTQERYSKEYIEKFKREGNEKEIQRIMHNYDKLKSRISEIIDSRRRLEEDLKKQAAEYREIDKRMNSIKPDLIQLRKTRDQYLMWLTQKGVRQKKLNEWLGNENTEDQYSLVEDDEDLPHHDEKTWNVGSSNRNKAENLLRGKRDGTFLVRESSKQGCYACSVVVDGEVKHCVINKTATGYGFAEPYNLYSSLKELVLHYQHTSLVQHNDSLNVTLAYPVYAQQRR

Row | Compound | IC50 (Human mTOR (FLAG-TOR)) [nM] | IC50 [1] [nM] | IC50 (PI3K-α; read-out: IC50 PI3Kα) [nM] | IC50 (PI3K-γ; read-out: IC50 PI3Kγ) [nM] | IC50 (PI3K-α) [nM] | IC50 (PI3K-γ) [nM]
1 | O=C(Nc1ccncc1)Nc1ccc(-c2nc(N3CCC(NCc4ccccc4)CC3)nc(N3CC4CCC(C3)O4)n2)cc1 [Example 117, 1-(4-{4-[4-(benzylamino)piperidin-1-yl]-6-(8-oxa-3-azabicyclo[3.2.1]oct-3-yl)-1,3,5-triazin-2-yl}phenyl)-3-pyridin-4-ylurea] | 83 | 700 | 177 | 3000 |  | 
2 | CNC1CCN(c2nc(-c3ccc(NC(=O)Nc4ccncc4)cc3)nc(N3CC4CCC(C3)O4)n2)CC1 [Example 118, 1-(4-{4-[4-(methylamino)piperidin-1-yl]-6-(8-oxa-3-azabicyclo[3.2.1]oct-3-yl)-1,3,5-triazin-2-yl}phenyl)-3-pyridin-4-ylurea] | 195 | 3000 | 379 | 297 |  | 
3 | CCNC1CCN(c2nc(-c3ccc(NC(=O)Nc4ccncc4)cc3)nc(N3CC4CCC(C3)O4)n2)CC1 [Example 119, 1-(4-{4-[4-(ethylamino)piperidin-1-yl]-6-(8-oxa-3-azabicyclo[3.2.1]oct-3-yl)-1,3,5-triazin-2-yl}phenyl)-3-pyridin-4-ylurea] | 140 | 2800 | 1240 | 7530 |  | 
4 | CN(C)CCNC1CCN(c2nc(-c3ccc(NC(=O)Nc4ccncc4)cc3)nc(N3CC4CCC(C3)O4)n2)CC1 [Example 120, 1-{4-[4-(4-{[2-(dimethylamino)ethyl]amino}piperidin-1-yl)-6-(8-oxa-3-azabicyclo[3.2.1]oct-3-yl)-1,3,5-triazin-2-yl]phenyl}-3-pyridin-4-ylurea] | 79 | 1200 | 262 | 1550 |  | 
5 | CN1CCN(C2CCN(c3nc(-c4ccc(NC(=O)Nc5ccncc5)cc4)nc(N4CC5CCC(C4)O5)n3)CC2)CC1 [Example 122, 1-(4-(4-(8-oxa-3-azabicyclo[3.2.1]octan-3-yl)-6-(4-(4-methylpiperazin-1-yl)piperidin-1-yl)-1,3,5-triazin-2-yl)phenyl)-3-(pyridin-4-yl)urea] | 74.5 | 900 | 1160 | 9500 |  | 
6 | O=C(Nc1ccncc1)Nc1ccc(-c2nc(N3CCC(NCCO)CC3)nc(N3CC4CCC(C3)O4)n2)cc1 [Example 123, 1-(4-(4-(8-oxa-3-azabicyclo[3.2.1]octan-3-yl)-6-(4-(2-hydroxyethylamino)piperidin-1-yl)-1,3,5-triazin-2-yl)phenyl)-3-(pyridin-4-yl)urea] | 115 | 4100 | 760 | 6350 |  | 
7 | O=C(Nc1ccncc1)Nc1ccc(-c2nc(N3CCC(NCCN4CCOCC4)CC3)nc(N3CC4CCC(C3)O4)n2)cc1 [Example 124, 1-(4-(4-(8-oxa-3-azabicyclo[3.2.1]octan-3-yl)-6-(4-(2-morpholinoethylamino)piperidin-1-yl)-1,3,5-triazin-2-yl)phenyl)-3-(pyridin-4-yl)urea] | 155 | 1950 | 1650 | 9650 |  | 
8 | COC(=O)CNC1CCN(c2nc(-c3ccc(NC(=O)Nc4ccncc4)cc3)nc(N3CC4CCC(C3)O4)n2)CC1 [Example 125, Methyl 2-(1-(4-(8-oxa-3-azabicyclo[3.2.1]octan-3-yl)-6-(4-(3-pyridin-4-ylureido)phenyl)-1,3,5-triazin-2-yl)piperidin-4-ylamino)acetate] | 16 | 1000 | 840 | 8750 |  | 
9 | NC(=O)CNC1CCN(c2nc(-c3ccc(NC(=O)Nc4ccncc4)cc3)nc(N3CC4CCC(C3)O4)n2)CC1 [Example 126, 2-(1-(4-(8-oxa-3-azabicyclo[3.2.1]octan-3-yl)-6-(4-(3-pyridin-4-ylureido)phenyl)-1,3,5-triazin-2-yl)piperidin-4-ylamino)acetamide] | 19.5 | 1300 | 510 | 5510 |  | 
10 | CC(C)(C)OC(=O)CNC1CCN(c2nc(-c3ccc(NC(=O)Nc4ccncc4)cc3)nc(N3CC4CCC(C3)O4)n2)CC1 [Example 127, Tert-butyl 2-(1-(4-(8-oxa-3-azabicyclo[3.2.1]octan-3-yl)-6-(4-(3-pyridin-4-ylureido)phenyl)-1,3,5-triazin-2-yl)piperidin-4-ylamino)acetate] | 51.5 | 1350 | 1390 | 4730 |  | 
11 | COC(=O)Nc1ccc(-c2nc(-c3ccc(NC(=O)Nc4ccc(N5CCN(C)CC5)cc4)cc3)nc(N3CC4CCC(C3)O4)n2)cc1 [Example 145, methyl(4-{4-[4-({[4-(4-methylpiperazin-1-yl)phenyl]carbamoyl}amino)phenyl]-6-(8-oxa-3-azabicyclo[3.2.1]oct-3-yl)-1,3,5-triazin-2-yl}phenyl)carbamate] | 9 | 120 | 574 | 1000 |  | 

The next lines start with the values.

Row | IC50 (Human mTOR (FLAG-TOR)) [nM] | IC50 [1] [nM] | IC50 (PI3K-α; read-out: IC50 PI3Kα) [nM] | IC50 (PI3K-γ; read-out: IC50 PI3Kγ) [nM] | IC50 (PI3K-α) [nM] | IC50 (PI3K-γ) [nM] | Compound
12 | 6 | 1000 | 1930 | 6830 |  |  | CN1CCN(c2ccc(NC(=O)Nc3ccc(-c4nc(-c5ccc(NC(=O)Nc6ccc(N7CCN(C)CC7)cc6)cc5)nc(N5CC6CCC(C5)O6)n4)cc3)cc2)CC1 [Example 147, N′,N′″-{[6-(8-oxa-3-azabicyclo[3.2.1]oct-3-yl)-1,3,5-triazine-2,4-diyl]di-4,1-phenylene}bis{1-[4-(4-methylpiperazin-1-yl)phenyl]urea}]
13 | 8 | 680 | 300 | 620 |  |  | CN1CCN(c2ccc(NC(=O)Nc3ccc(-c4nc(-c5ccc(NC(=O)Nc6ccncc6)cc5)nc(N5CC6CCC(C5)O6)n4)cc3)cc2)CC1 [Example 148, 1-[4-(4-methylpiperazin-1-yl)phenyl]-3-{4-[4-(8-oxa-3-azabicyclo[3.2.1]oct-3-yl)-6-{4-[(pyridin-4-ylcarbamoyl)amino]phenyl}-1,3,5-triazin-2-yl]phenyl}urea]
14 | 80 | 32000 | 889 | 1400 |  |  | NCCNc1nc(-c2ccc(NC(=O)Nc3cccnc3)cc2)nc(N2CC3CCC(C2)O3)n1 [Example 149, 1-(4-{4-[(2-aminoethyl)amino]-6-(8-oxa-3-azabicyclo[3.2.1]oct-3-yl)-1,3,5-triazin-2-yl}phenyl)-3-pyridin-3-ylurea]
15 | 5 | 290 |  |  | 832 | > 10000 | O=C(Nc1ccc(-c2nc(Nc3ccccc3)nc(N3CC4CCC(C3)O4)n2)cc1)Nc1cccnc1 [Example 150, 1-{4-[4-anilino-6-(8-oxa-3-azabicyclo[3.2.1]oct-3-yl)-1,3,5-triazin-2-yl]phenyl}-3-pyridin-3-ylurea]
16 | 64 | 22000 | 275 | 3820 |  |  | O=C(Nc1ccc(-c2nc(NC3CNC3)nc(N3CC4CCC(C3)O4)n2)cc1)Nc1cccnc1 [Example 154, 1-{4-[4-(azetidin-3-ylamino)-6-(8-oxa-3-azabicyclo[3.2.1]oct-3-yl)-1,3,5-triazin-2-yl]phenyl}-3-pyridin-3-ylurea]
17 | 16 | 400 | 2300 | 4940 |  |  | O=C(Nc1ccc(-c2nc(NCCN3CCOCC3)nc(N3CC4CCC(C3)O4)n2)cc1)Nc1cccnc1 [Example 155, 1-(4-{4-[(2-morpholin-4-ylethyl)amino]-6-(8-oxa-3-azabicyclo[3.2.1]oct-3-yl)-1,3,5-triazin-2-yl}phenyl)-3-pyridin-3-ylurea]
18 | 170 | 2700 | 1450 | 7090 |  |  | O=C(Nc1ccc(-c2nc(NN3CCN(C4CCCC4)CC3)nc(N3CC4CCC(C3)O4)n2)cc1)Nc1cccnc1 [Example 157, 1-(4-{4-[(4-cyclopentylpiperazin-1-yl)amino]-6-(8-oxa-3-azabicyclo[3.2.1]oct-3-yl)-1,3,5-triazin-2-yl}phenyl)-3-pyridin-3-ylurea]
19 | 7 | 49 | 300 | 1290 |  |  | CC(C)Oc1nc(-c2ccc(NC(=O)Nc3ccncc3)cc2)nc(N2CC3CCC(C2)O3)n1 [Example 158, 1-{4-[4-isopropoxy-6-(8-oxa-3-azabicyclo[3.2.1]oct-3-yl)-1,3,5-triazin-2-yl]phenyl}-3-pyridin-4-ylurea]
20 | 2 | 1.2 | 133 | 3920 |  |  | CC(C)Oc1nc(-c2ccc(NC(=O)Nc3ccc(N4CCN(C)CC4)cc3)cc2)nc(N2CC3CCC(C2)O3)n1 [Example 159, 1-{4-[4-isopropoxy-6-(8-oxa-3-azabicyclo[3.2.1]oct-3-yl)-1,3,5-triazin-2-yl]phenyl}-3-[4-(4-methylpiperazin-1-yl)phenyl]urea]
21 | 7 | 220 | 358 | 9070 |  |  | O=C(Nc1ccncc1)Nc1ccc(-c2nc(Cl)nc(N3CC4CCC(C3)O4)n2)cc1 [Example 160, 1-{4-[4-chloro-6-(8-oxa-3-azabicyclo[3.2.1]oct-3-yl)-1,3,5-triazin-2-yl]phenyl}-3-pyridin-4-ylurea]
22 | 8.3 | 5000 | 408 | 7960 |  |  | O=C(Nc1ccc(-c2nc(NCC3CCNCC3)nc(N3CC4CCC(C3)O4)n2)cc1)Nc1cccnc1 [Example 169, 1-(4-{4-(8-oxa-3-azabicyclo[3.2.1]oct-3-yl)-6-[(piperidin-4-ylmethyl)amino]-1,3,5-triazin-2-yl}phenyl)-3-pyridin-3-ylurea]
23 | 4 | 4500 | 384 | 9500 |  |  | O=C(Nc1ccc(-c2nc(NCCC3CCNCC3)nc(N3CC4CCC(C3)O4)n2)cc1)Nc1cccnc1 [Example 170, 1-(4-{4-(8-oxa-3-azabicyclo[3.2.1]oct-3-yl)-6-[(2-piperidin-4-ylethyl)amino]-1,3,5-triazin-2-yl}phenyl)-3-pyridin-3-ylurea]
